# Laboratory results as given in publication PMC9535023, “Inhibition of phospholipase D1 induces immunogenic cell death and potentiates cancer immunotherapy in colorectal cancer” (Experimental & Molecular Medicine, 2022).
# How the values were obtained:
# [1] = molecular target: T1, PLD1 (Mus musculus, UniProt Q9Z280); test: PLD1 activity in Pld2−/− MEFs; format: cell-based
# T1 construct: endogenous in cells; host or cells: immortalized Pld2-/- mouse embryonic fibroblasts
# T1 sequence (Q9Z280 1-1074): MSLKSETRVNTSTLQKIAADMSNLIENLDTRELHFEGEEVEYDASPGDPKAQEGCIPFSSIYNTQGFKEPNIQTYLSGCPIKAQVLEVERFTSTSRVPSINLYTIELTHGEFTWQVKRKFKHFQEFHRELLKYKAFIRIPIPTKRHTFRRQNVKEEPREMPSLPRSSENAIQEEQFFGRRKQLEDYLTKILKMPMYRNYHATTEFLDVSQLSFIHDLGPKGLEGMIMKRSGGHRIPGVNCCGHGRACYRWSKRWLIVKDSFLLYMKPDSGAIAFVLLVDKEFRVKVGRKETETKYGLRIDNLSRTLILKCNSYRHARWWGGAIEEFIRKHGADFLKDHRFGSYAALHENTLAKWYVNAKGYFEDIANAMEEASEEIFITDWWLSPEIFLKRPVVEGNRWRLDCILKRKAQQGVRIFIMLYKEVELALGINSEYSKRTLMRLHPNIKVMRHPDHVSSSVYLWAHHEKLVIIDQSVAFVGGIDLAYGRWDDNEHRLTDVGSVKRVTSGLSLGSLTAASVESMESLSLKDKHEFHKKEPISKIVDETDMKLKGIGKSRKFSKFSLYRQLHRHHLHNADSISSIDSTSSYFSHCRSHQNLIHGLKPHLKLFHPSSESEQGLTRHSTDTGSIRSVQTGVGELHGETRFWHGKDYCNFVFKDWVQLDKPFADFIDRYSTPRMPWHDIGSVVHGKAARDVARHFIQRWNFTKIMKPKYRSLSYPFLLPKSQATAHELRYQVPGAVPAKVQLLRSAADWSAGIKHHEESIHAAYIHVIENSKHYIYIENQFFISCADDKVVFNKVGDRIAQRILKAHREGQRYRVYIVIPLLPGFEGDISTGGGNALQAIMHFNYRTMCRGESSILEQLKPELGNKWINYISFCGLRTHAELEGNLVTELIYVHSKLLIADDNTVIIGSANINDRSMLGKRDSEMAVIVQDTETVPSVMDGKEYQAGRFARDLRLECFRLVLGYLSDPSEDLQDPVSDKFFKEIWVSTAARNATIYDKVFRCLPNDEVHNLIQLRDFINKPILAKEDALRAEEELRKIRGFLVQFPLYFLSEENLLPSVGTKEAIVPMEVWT
# Protocol: Cells were labeled with [H^3] myristic acid, and PLD activity was assessed by measuring the formation of [H^3] phosphatidylbutanol, which is the product of PLD-mediated transphosphatidylation, in the presence of 1-butanol, as previously described.
# We further investigated the effect of A3373 on the enzymatic inhibition of PLD1 and PLD2 in Pld^+/+, Pld1^−/−, and Pld2^−/− MEFs. […] Kinase profiling was used to evaluate the general selectivity of the lead compounds. […] To further investigate whether inhibition of PLD1 by A3373 occurs by binding to PLD1, we first modified A3373 by adding biotinylation instead of the F present in its structure and measured PLD activity.
# [2] = molecular target: hERG channel (Homo sapiens, UniProt Q12809); test: hERG ligand-binding assay; conditions: HEK293 cells transfected with hERG
# Sequence of hERG channel (Q12809 whole entry): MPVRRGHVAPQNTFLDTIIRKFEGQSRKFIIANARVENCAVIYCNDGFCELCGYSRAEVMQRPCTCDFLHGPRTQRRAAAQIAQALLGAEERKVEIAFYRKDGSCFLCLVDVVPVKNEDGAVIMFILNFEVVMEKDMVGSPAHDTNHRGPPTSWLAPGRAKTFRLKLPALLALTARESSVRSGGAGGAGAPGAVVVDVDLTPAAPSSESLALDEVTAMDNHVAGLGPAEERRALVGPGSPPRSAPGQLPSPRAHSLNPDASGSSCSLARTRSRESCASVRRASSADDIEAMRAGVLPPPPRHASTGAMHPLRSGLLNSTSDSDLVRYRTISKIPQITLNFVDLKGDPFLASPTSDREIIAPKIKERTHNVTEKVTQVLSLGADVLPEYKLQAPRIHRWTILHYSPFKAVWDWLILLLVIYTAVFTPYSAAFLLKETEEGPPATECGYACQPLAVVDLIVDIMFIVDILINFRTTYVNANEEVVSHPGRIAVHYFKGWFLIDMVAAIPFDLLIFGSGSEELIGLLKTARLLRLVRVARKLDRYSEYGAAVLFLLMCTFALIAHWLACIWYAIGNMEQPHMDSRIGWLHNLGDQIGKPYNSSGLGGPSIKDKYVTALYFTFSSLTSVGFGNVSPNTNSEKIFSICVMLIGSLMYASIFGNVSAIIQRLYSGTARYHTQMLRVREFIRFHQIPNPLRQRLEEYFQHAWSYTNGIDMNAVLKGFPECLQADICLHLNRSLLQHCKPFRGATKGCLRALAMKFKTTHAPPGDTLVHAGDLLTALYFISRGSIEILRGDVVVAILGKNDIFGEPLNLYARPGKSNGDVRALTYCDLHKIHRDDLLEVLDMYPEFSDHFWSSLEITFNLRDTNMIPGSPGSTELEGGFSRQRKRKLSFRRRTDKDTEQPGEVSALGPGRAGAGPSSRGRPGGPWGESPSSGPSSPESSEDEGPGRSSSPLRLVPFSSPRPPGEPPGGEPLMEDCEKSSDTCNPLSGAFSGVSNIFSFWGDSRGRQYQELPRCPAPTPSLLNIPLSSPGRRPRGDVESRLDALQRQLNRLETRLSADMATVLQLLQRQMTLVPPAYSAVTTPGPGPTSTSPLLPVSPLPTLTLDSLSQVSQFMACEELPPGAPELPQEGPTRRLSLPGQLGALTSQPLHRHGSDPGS
# Protocol: (§1) Both hERG assays were conducted as described previously.
# [3] = molecular target: T2, hERG K^+ channel (Homo sapiens, UniProt Q12809); test: hERG patch-clamp assay in HEK293 cells transfected with hERG; format: cell-based
# T2 construct: expressed in transfected cells; host or cells: HEK293
# T2 sequence (Q12809 whole entry): as above
# Protocol: as §1
# [4] = test system: FHC cells; test: Cell cycle analysis (BrdU/7-AAD flow cytometry), FHC; format: cell-based; conditions: FHC normal fetal colonic mucosa cells
# Protocol: For cell cycle analysis, the cells were treated with Α3373 or 5-FU. The cells were labeled with 10 μΜ bromodeoxyuridine (BrdU) for 2 h. Subsequently, the cells were stained with 7-aminoactinomycin D (7-AAD, Invitrogen) and a fluorescein isothiocyanate (FITC)-conjugated anti-BrdU antibody (Invitrogen). Apoptotic cells were detected using an Annexin V-FITC Apoptosis Detection Kit (BD Biosciences). The cells were analyzed using BD FACSAria III (BD Biosciences), and data analysis was performed using FlowJo v10.0 (BD Biosciences).
# [5] = test system: CRC cells; test: Measurement of HMGB1 release (ELISA); format: cell-based
# Protocol: For the quantitative determination of extracellular ATP, the cells were treated with Α3373. Extracellular release of ATP was assessed using the ENLITEN ATP Assay kit (Promega) according to the manufacturer’s instructions. For the HMGB1 level measurement, the supernatants of the cells were prepared by removing insoluble materials by centrifugation at 10,000 × g for 3 min at 4 °C. The levels of HMGB1 were measured using an HMGB1 detection kit (Chondrex) according to the manufacturer’s instructions.
# [6] = test system: β-catenin/TCF-4 complex; test: Immunoprecipitation of β-catenin/TCF-4; format: cell-based; conditions: 2 μM, 12 h, CRC cells
# Protocol: As previously described, lysates from cells or colorectal cancer (CRC) tissues were analyzed by immunoprecipitation, and/or Western blotting was performed as described previously. The antibodies used are listed in Supplementary Table 5. A polyclonal anti-PLD antibody that recognizes both PLD1 and PLD2 was generated, as previously described. The use of human CRC tissue samples was approved by the Institutional Review Board of Pusan National University, Korea (PNU IRB/2011-6).
# [7] = test system: CRC cells; test: Cell migration and invasion assay; format: cell-based
# Protocol: For the cell migration assay, the cells were added to an 8 μm pore transwell polycarbonate chamber (SPL Life Science). After 24 h of incubation, the number of cells that migrated through the membrane into the lower chamber was counted. For the cell invasion assay, Matrigel (dilution at 1:5; BD Biosciences) was added to the Transwell chambers and incubated for 5 h. The cells were then seeded; after 24 h of incubation, the invaded cells on the bottom of the membrane were fixed with 10% formalin for 20 min and stained with 0.1% crystal violet for 3 h. The extent of invasion was expressed as the average number of cells per microscopic field.
structure (smiles),measurement,setting,value
O=C(Nc1cc(C(F)(F)F)cc(C(F)(F)F)c1)c1cc2cc(F)ccc2[nH]1 [Compound A3373],"PLD1 activity, in words","[1]; 2 μM, Pld−/− MEFs",suppressed
same,IC50,[1]; Pld2−/− MEFs,325 nM
same,inhibition at 10 µM,[2],3.4%
same,IC50,[3],> 50000 nM
same,"cell cycle / S phase in FHC cells, in words",[4],had no effect on FHC cells
same,"release of HMGB1, in words",[5],increased the release of HMGB1 in a dose-dependent manner
same,endogenous interaction between β-catenin and TCF-4,[6],disrupted the endogenous interaction between β-catenin and TCF-4
same,Wnt3a-induced migration and invasion,[7],significantly suppressed Wnt3a-induced migration and invasion
